Assay results reported in patent US20080194590A1, “4-Piperazinylthieno [2,3-D] Pyrimidine Compounds as Platelet Aggregation Inhibitors” (Pfizer Inc, priority 2005, published 2008).
Several values for one entry are separate records, joined by “and”; a condition that tells them apart may be missing. Identical values can stand only once.

Target: P2Y12 receptor (Homo sapiens, UniProt Q9H244)
Test: Human P2Y12 recombinant cell membrane binding assay with 33P 2MeS-ADP (Assay 3)
Design: expressed in transfected cells; host or cells: HEK cells
Conditions: for IC50 / Ki: HEK cell membranes expressing P2Y12, multiple lines = multiple runs; for inhibition at 10 µM / [33P]-2MeS-ADP Binding to Recombinant Human P2Y12 Membranes (Assay 3) % Inhibition: highest concentration tested 10 μM; for inhibition at 10 µM: read-out: [33P]-2MeS-ADP Binding to Recombinant Human P2Y12 Membranes (Assay 3) % Inhibition
Description: 3. Human P2Y12 Recombinant Cell Membrane Binding Assay with ^33P 2MeS-ADP.
The ability of a test compound to bind to the P2Y12 receptor was evaluated in a recombinant cell membrane binding assay. In this competitive binding assay, the test compound competed against a radiolabelled agonist for binding to the P2Y12 receptor, expressed on the cell membrane. Inhibition of binding of the labeled material was measured and correlated to the amount and potency of the test compound. Data from this assay are presented in Table F. This binding assay is a modification of the procedure in Takasaki, J. et. al, Mol. Pharmacol., 2001, Vol. 60, pg. 432.
HEK cells were transfected with the pDONR201P2Y12 vector and cultured in MEM with GlutaMAX I, Earle's salts, 25 mM HEPES (Gibco # 42360-032) containing 10% dialyzed FBS (Gibco # 26400-044), 100 μM nonessential amino acids (Gibco # 11140-050), 1 mM sodium pyruvate (Gibco # 11360-070), 0.05% geneticin (Gibco #10131-027), 3 μg/mL blasticidin (Fluka brand from Sigma # 15205), and 0.5 μg/mL puromycin (Sigma # P-8833).
Confluent cells were washed once with cold DPBS (Gibco # 14190-136). Fresh DPBS was added and the cells were scraped and centrifuged at 500×g for 5 minutes at 4° C. The cell pellets were resuspended in TEE buffer (25 mM Tris, 5 mM EDTA, 5 mM EGTA) containing 1 protease inhibitor cocktail tablet (Roche # 1 873 580) per 50 mL (called TEE+Complete) and can be flash frozen at this point.
In one embodiment, frozen cell pellets were used to prepare the membranes. In that embodiment, the frozen cell pellets were thawed on ice. In another embodiment, cell pellets may be used without flash freezing before moving on to the next step.
Cell pellets were resuspended in TEE buffer+Complete and homogenized in a glass dounce for 12 strokes. The cell suspension was centrifuged at 500×g for 5 minutes at 4° C. The supernatant was saved and centrifuged at 20,000×g for 20 minutes at 4° C. This supernatant was discarded and the cell pellet resuspended in TEE buffer+Complete and homogenized in a glass dounce for 12 strokes. This suspension was centrifuged at 20,000×g for 20 minutes at 4° C. and the supernatant discarded. The pellet was resuspended in assay buffer (50 mM Tris, 100 mM NaCl, 1 mM EDTA) containing one protease inhibitor cocktail tablet per 50 mL, and can be flash frozen as 1 mL aliquots at this point.
Dry compounds were diluted as 10 mM DMSO stocks and tested in a seven-point, three-fold dilution series run in triplicate beginning at 10 μM, final concentration. A 1 mM DMSO intermediate stock was made in a dilution plate and from this the seven dilutions were made to 5× the final concentration in assay buffer containing 0.02% BSA.
To a polypropylene assay plate (Costar # 3365) the following were added: a) 30 μL of assay buffer containing one protease inhibitor cocktail tablet per 50 mL; b) 30 μL of 1 nM ^33P 2MeS-ADP made in assay buffer containing 0.02% BSA and 12.5 mg/mL ascorbic acid; 30 μL of cold 1.5 μM 2MeS-ADP for the positive control wells, or assay buffer containing 0.02% BSA and 12.5 mg/mL ascorbic acid for the negative control wells, or 5× drug dilution; and 60 μL of 1 ug/well membranes.
The plates were incubated at room temperature for 1 hour. The reaction was stopped using a cell harvester to transfer the reaction mixture onto GF/B UniFilter plates (Perkin Elmer # 6005177), and washed three times with wash buffer (50 mM Tris), filtering between each wash. The filter plates were dried for approximately 20 minutes in an oven at 50° C. Back seals were adhered to the filter plates and 25 uL of Microscint 20 scintillation fluid (Perkin Elmer # 6013621) were added. The filter plates were sealed, shaken for 30 minutes, and counted on a Top Count. Data were analyzed using a four-parameter curve fit with a fixed minimum and maximum experimentally defined as the average positive and negative controls on each plate, and with a hill slope equal to one.

P2Y12 receptor, sequence (Q9H244 whole entry): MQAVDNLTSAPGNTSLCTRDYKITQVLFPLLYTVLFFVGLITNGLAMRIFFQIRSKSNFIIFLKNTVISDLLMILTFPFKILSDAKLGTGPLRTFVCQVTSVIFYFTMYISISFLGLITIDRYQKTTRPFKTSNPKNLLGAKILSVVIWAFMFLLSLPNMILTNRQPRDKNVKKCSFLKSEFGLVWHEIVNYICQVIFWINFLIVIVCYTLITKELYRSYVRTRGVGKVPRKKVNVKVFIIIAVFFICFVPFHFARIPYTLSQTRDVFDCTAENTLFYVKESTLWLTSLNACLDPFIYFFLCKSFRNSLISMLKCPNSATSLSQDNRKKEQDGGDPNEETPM

| IC50 | Ki | inhibition at 10 µM [%] | [33P]-2MeS-ADP Binding to Recombinant Human P2Y12 Membranes (Assay 3) % Inhibition [%] | SMILES |
| --- | --- | --- | --- | --- |
| 138 nM | 81 nM | 86 |  | CCOC(CCNc1nc(N2CCN(C(=O)c3ccc(-c4ccccc4)cc3)CC2)c2cc(CC)sc2n1)OCC [Example 22, 4-[4-(1,1′-Biphenyl-4-ylcarbonyl)piperazin-1-yl]-N-(3,3-diethoxypropyl)-6-ethylthieno[2,3-d]pyrimidin-2-amine] |
| 13.2 nM | 8 nM | 85 |  | CCc1cc2c(N3CCN(C(=O)c4ccc(-c5ccccc5)cc4)CC3)nc(NCCC(=O)O)nc2s1 [Example 24, N-{4-[4-(1,1′-Biphenyl-4-ylcarbonyl)piperazin-1-yl]-6-ethylthieno[2,3-d]pyrimidin-2-yl}-beta-alanine] |
| 30 nM | 17 nM | 94 |  | CCc1cc2c(N3CCN(C(=O)c4ccc(-c5ccccc5)cc4)CC3)nc(NCCC(=O)NC(CO)CO)nc2s1 [Example 25, N^3-{4-[4-(1,1′-Biphenyl-4-ylcarbonyl)piperazin-1-yl]-6-ethylthieno[2,3-d]pyrimidin-2-yl}-N˜1˜-[2-hydroxy-1-(hydroxymethyl)ethyl]-beta-alaninamide] |
| 44 nM and 47 nM | 27 nM and 29 nM | 92.3 | 98.44 | CCc1cc2c(N3CCN(C(=O)c4ccc(-c5ccccc5)cc4)CC3)nc(NCCN(C)C)nc2s1 [Example 28, N′-{4-[4-(1,1′-biphenyl-4-ylcarbonyl)piperazin-1-yl]-6-ethylthieno[2,3-d]pyrimidin-2-yl}-N,N-dimethylethane-1,2-diamine] |
| 96 nM | 51 nM | 96.5 |  | CCc1cc2c(N3CCN(C(=O)c4cccc(-c5ccccc5)c4)CC3)nc(NC(CO)CO)nc2s1 [Example 32, 2-({4-[4-(1,1′-biphenyl-3-ylcarbonyl)piperazin-1-yl]-6-ethylthieno[2,3-d]pyrimidin-2-yl}amino)propane-1,3-diol] |
| 1050 nM and 1940 nM | 557 nM and 1010 nM | 75.7 | 70.7 | CCc1cc2c(N3CCN(C(=O)CC(F)(F)F)CC3)nc(NC[C@@H](O)CO)nc2s1 [Example 36, (2R)-3-({6-Ethyl-4-[4-(3,3,3-trifluoropropanoyl)piperazin-1-yl]thieno[2,3-d]pyrimidin-2-yl}amino)propane-1,2-diol] |
